Test results: US20250101338A1, “BIOMASS DERIVED SURFACE-ACTIVE COMPOSITIONS AND PRODUCTS” (Cambridge Glycoscience Ltd, priority 2021, published 2025)

What was measured:
Type in all cases: physicochemical
[1] = Water in oil emulsion stability test (Example 65); conditions: 0.5 mL water with 2 wt % substance + 1.5 mL sunflower oil, vortex 30 s, visual inspection
Description: 0.5 mL deionized water containing 2 wt % of the stated inventive or comparative compound was added to 1.5 mL commercial, food-grade sunflower oil, in a sample vial. The vials were each agitated with a IKA Vortex mixture for 30 seconds. The vials were left to stand and inspected visually for emulsion quality after 5 minutes, 1 hour, 4 hours and finally 24 h (FIG. 14 and FIG. 15). […] The results also show an unexpected increase in emulsifying performance for the inventive compositions comprising oligosaccharide mixture-derived surface-active agents (such as example 4-6 compositions) compared with those derived from a single monomeric sugar (xylose) alone (such as example 12 and 13 compositions).

[2] = Emulsion formation with different oil-water ratios (Example 66); conditions: water-oil ratio 1:2.5, groundnut oil, 3.0 wt % composition
Description: The ability of inventive surface-active compositions to stabilize emulsions in different mass-ratios of vegetable oil and water was investigated. Mixtures of water, vegetable oil and inventive surface-active composition were prepared as per table below, by adding groundnut oil, water, and surface-active composition in the desired mass ratio. The mixtures were heated at 60 C in a homogenizer (stirring for 10 minutes at 800 rpm, then further homogenized at this speed and ambient temperature for 5 min). The visual appearance of each mixture was acknowledged. The mixtures were then treated by centrifugation at 1500 rpm for 5 mi and the visual appearance was again acknowledged.

[3] = Dynamic foam tests (Example 69); conditions: 5 mL of 0.5 wt % aqueous solution, 40 cm^3 air bubbled at 17 cm^3/min
Description: The intensity and approximate decay-rate for the foaming behavior of the surface-active compositions in dilute aqueous solution was determined by dosing 5 mL of 0.5 wt % aqueous solution of surface-active composition to a vertically-aligned 50 m plastic serological pipette (“Stripette”). Air (40 cm^3) was bubbled through the surface-active composition solution at a rate of 17 cm^3/min via a syringe pump and the foam height upon complete addition of air recorded. The foam height was also recorded again 5 min after complete addition of air, 10 min after complete addition of air, 15 m after complete addition of air, 30 min after complete addition of air, 1 hour after complete addition of air and finally 2 hours after complete addition of air.

[4] = Flash foam generation test (Example 70); conditions: 20 mg in 4 mL deionized water (10 wt % [sic]), 2 mL shaken 30 s in 15 mL tube, duplicate average
Description: 20 mg of each surface-active composition for testing was dissolved in deionized water (4 mL) to give a 10 wt % solution, 2 mL was added to a 15 mL FALCON tube. Each falcon tube was secured in a holder before being vigorously shook for 30 seconds. The initial foam height and structure was noted. The foam height was then noted at 5 min, 10 min, 15 min, 30 min, 45 min, 1 hr and 2 hr after the initial measurement. The experiment was repeated in duplicate. Averaged results are depicted in table 5 and FIG. 11.

[5] = Relative viscosity, gravity flow time (Example 74); conditions: 10 mL of 10 wt % sodium dodecyl sulfate + 0.3 g NaCl + 0.655 mL of 30 wt % test solution, 27° C., triplicate
Description: The time taken for precisely 3 mL of testing mixture to pass out of the […] by gravity was recorded. The test was repeated in triplicate. Averaged results are depicted in FIG. 20 and table 9. It was unexpected that example 11 composition recorded such high viscosity over example 14 composition, which differs by a slightly smaller alkyl chain (octyl instead of decyl).

[6] = Critical micellular concentration determination (Example 78); conditions: deionized water
Description: Stock solutions were prepared of known weight concentration (range spanning 0.005 wt %-5.000 wt %) of inventive surface-active compositions (by solution of the appropriate weight of example composition in deionized water). For reference, the surface tension of deionized water in the absence of a surface-active composition is 73 mN. […] The surface tensions of the solutions at the concentration of the CMC were also noted. Results are shown in table 10 and graphical results are depicted in FIG. 22.

[7] = Aqueous solubility noted at preparation
Description: Solid N-decyl xylosylamine (7.6 g) was suspended in 2-propanol (60 mL) and triethylamine (2 equiv.) then acetic anhydride (1.6 equiv.) was added slowly. Stirring continued at ambient temperature for 10 h. Water (50 mL) was added, and the mixture stirred for 5 min. Dichloromethane (50 mL) was added and the phases separated. The aqueous phase was extracted with additional DCM. The combined organic phase washed with saturated aqueous NH4Cl solution, then the aqueous phase extracted with additional DCM. The combined organic phases were dried over anhydrous magnesium sulfate, filtered, then concentrated under reduced pressure to give a yellow oil. The oil was purified by FCC eluting with MeOH (2-15%) in DCM (120 g normal phase silica cartridge with wet loading). Fractions containing the product were combined and evaporated to dryness to give the desired product (4.1 g, 49%) as a yellow gum. LC-MS (Method A), Rt=1.69 min, [M+H]+=332.2. The gum product can be dissolved in water to form solutions of 50 wt % or greater.
The process was carried out in essentially the same manner as in Example 11 a) step (ii) but using the solid product of Example 11 reaction c) step (i) and the crude product was instead purified by FCC eluting with MeOH (2-13%) in DCM. There were obtained 1.4 g of cream gum product. LC-MS (Method A), Rt=1.87 min, [M+H]^+=360.5.

Question: Which “Time inspected by which the emulsion first appeared dispersed” value [1] does the source give for `CCCCCCCCCCN(C(C)=O)C1OC[C@@H](O)[C@H](O)[C@H]1O` (some centres unmarked) [Example 11 composition, N-decyl N-acetyl xylosylamine] here?
Answer: 24 h

Question: What about the “Visual interpretation of results, after centrifugation” value ([2]; 1500 rpm 5 min) of the same compound?
Answer: Complete phase-separation

Question: What about the “Visual interpretation of results, before centrifugation” value ([2]; homogenized at 60 C) of the same compound?
Answer: Emulsion failed to form.

Question: What about the “Volume of foam after given time” value ([3]; 0 min) of the same compound?
Answer: 36.0 cm^3

Question: And the “Volume of foam after given time” value ([3]; 5 min)?
Answer: 2.0 cm^3

Question: What about the “Volume of foam after given time” value ([3]; 15 min) of the same compound?
Answer: 2.0 cm^3

Question: What about the “Volume of foam after given time” value ([3]; 30 min) of the same compound?
Answer: 2.0 cm^3

Question: And the “Volume of foam after given time” value ([3]; 1 h)?
Answer: 2.0 cm^3

Question: And the “Volume of foam after given time” value ([3]; 2 h)?
Answer: 2.0 cm^3

Question: What about the “Volume of foam after given time” value ([4]; 0 min) of the same compound?
Answer: 8.3 cm^3

Question: And the “Volume of foam after given time” value ([4]; 5 min)?
Answer: 4.8 cm^3

Question: What about the “Volume of foam after given time” value ([4]; 15 min) of the same compound?
Answer: 2.5 cm^3

Question: What about the “Volume of foam after given time” value ([4]; 30 min) of the same compound?
Answer: 2.3 cm^3

Question: And the “Volume of foam after given time” value ([4]; 1 h)?
Answer: 2.0 cm^3

Question: What about the “Volume of foam after given time” value ([4]; 2 h) of the same compound?
Answer: 2.0 cm^3

Question: And the “Average time (for 3 mL to pass out of the stripette by gravity)” value [5]?
Answer: 270.3 s

Question: And the “Solution Surface tension at CMC” value [6]?
Answer: 36 mN

Question: What about the CMC ([6]; from surface tension at 0.005-5.000 wt %) of the same compound?
Answer: 0.04 wt %

Question: What about the “Concentration of solutions formed in water” value ([7]; gum product dissolved in water) of the same compound?
Answer: ≥ 50 wt %

Question: What about the “Aqueous solubility (in words)” value ([7]; water, room temperature) of the same compound?
Answer: excellent aqueous solubility
